#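 Assay format: 96-well plates, 48-hour exposure. Here, GI50 denotes the concentration required for 50% inhibition of growth. TGI is the concentration that stops growth completely.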
# Tests used:
# Test in all cases: NCI tumour cell line growth inhibition, 48 h
# DMS 114 small cell lung = test system: DMS 114 small cell lung
# HOP-18 NSCLC = test system: HOP-18 NSCLC
# LOX IMVI melanoma = test system: LOX IMVI melanoma
# NCI-H23 lung = test system: NCI-H23 lung
# SF-539 CNS = test system: SF-539 CNS
# SNB-78 CNS = test system: SNB-78 CNS
# UO-31 renal = test system: UO-31 renal
# CAKI-1 renal = test system: CAKI-1 renal
# DU-145 prostate = test system: DU-145 prostate
# MDA-MB-231 breast = test system: MDA-MB-231 breast
# PC-3 prostate = test system: PC-3 prostate
SMILES,TGI (DMS 114 small cell lung) [µM],TGI (HOP-18 NSCLC) [µM],TGI (LOX IMVI melanoma) [µM],TGI (NCI-H23 lung) [µM],TGI (SF-539 CNS) [µM],TGI (SNB-78 CNS) [µM],TGI (UO-31 renal) [µM],TGI (CAKI-1 renal) [µM],TGI (DU-145 prostate) [µM],TGI (MDA-MB-231 breast) [µM],TGI (PC-3 prostate) [µM],GI50 (CAKI-1 renal) [µM],GI50 (DU-145 prostate) [µM],GI50 (LOX IMVI melanoma) [µM],GI50 (MDA-MB-231 breast) [µM],GI50 (NCI-H23 lung) [µM],GI50 (PC-3 prostate) [µM],GI50 (SF-539 CNS) [µM],GI50 (UO-31 renal) [µM]
Cc1ccc(C#CS(=O)(=O)C(F)(F)F)cc1,> 100,> 100,> 31.6,> 100,> 100,> 100,> 100,,,,,,,,,,,,
O=C(c1ccccc1O)c1cc(-c2ncc3c(=O)c4ccccc4oc3n2)c(-c2ccccc2O)[nH]c1=O,80.4,> 100,39.1,50.1,20.4,> 88.1,> 79.7,> 33.3,,,,,,,,,,,
N#Cc1ccc(C2Oc3ccc(Cl)cc3C=C2[N+](=O)[O-])cc1 (centres undefined),,,3.02,3.23,3.84,,2.99,2.96,6.07,3.63,3.37,,,,,,,,
COc1ccc([C@H]2c3cc4c(cc3OC(O)(CO)[C@H]2C(=O)O)OCO4)c(OC)c1 (some centres undefined) (tested in a mixture with another compound),> 100,> 100,> 100,> 100,> 100,> 100,> 100,,,,,,,,,,,,
COc1cc(/C(=C2/O[C@@H]([C@H]3COC(C)(C)O3)[C@H]3OC(C)(C)O[C@@H]23)c2ccc3c(c2)OCO3)cc(OC)c1OC,,,> 25,> 25,> 25,,> 25,> 25,> 25,> 25,> 25,> 25,> 25,> 25,> 25,> 25,> 25,8.05,> 25
O=C1c2cc3c(cc2CC1Cc1ccc2c(c1)CCC2)CCC3 (centres undefined),,,> 100,> 100,> 100,,> 100,,> 100,> 100,> 100,,,,,,,,
CCCCOc1ccc2c(c1)CC[C@@H]1[C@@H]2CC[C@]2(C)C(=O)N(CCCC)C(=O)C[C@@H]12,,,,> 100,,,> 100,> 100,> 100,> 100,> 100,,,,,,,,

# Reference: PubChem BioAssay (NCI)
